# Experimental data reported in patent US20240150334A1, “HSD17B13 INHIBITORS AND/OR DEGRADERS” (Pfizer Inc., priority 2022, published 2024).
# Structures can show the parent of a compound that is named as a salt.
# Legend:
# wild type human HSD17B13 = wild type human HSD17B13 (Homo sapiens (Human), UniProt Q7Z5P4); test: HEK_Beta-Est LCMS_IC50_Tekcel, whole-cell HEK-HSD17B13 inhibition assay, estrone production by LCMS; assay type: cell-based; settings: geometric mean, HEK cells stably expressing wild type human HSD17B13, 25 μM FAC beta-estradiol, read-out: HEK_Beta-Est LCMS_IC50—Tekcel GMean IC50
# wild type human HSD17B13, sequence (Q7Z5P4 20-300): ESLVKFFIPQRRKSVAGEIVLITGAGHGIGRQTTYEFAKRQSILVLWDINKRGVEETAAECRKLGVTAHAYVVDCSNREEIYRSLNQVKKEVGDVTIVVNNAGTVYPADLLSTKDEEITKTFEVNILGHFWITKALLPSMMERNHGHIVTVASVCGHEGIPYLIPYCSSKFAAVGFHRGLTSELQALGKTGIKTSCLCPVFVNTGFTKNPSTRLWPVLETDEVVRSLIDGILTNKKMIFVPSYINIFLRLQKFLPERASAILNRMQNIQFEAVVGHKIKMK
# Outline: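 Readout was LCMS quantitation of estrone made from beta-estradiol with NAD+ as cofactor. Whole HEK-HSD17B13 cells were given compound for 1 hour, then the reaction for 2 hours, both at 37° C. Product area ratios were normalized to vehicle controls as zero percent effect.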
# HSD17B13 enzyme = HSD17B13 enzyme (Homo sapiens (Human), UniProt Q7Z5P4); test: hHSD17B13 IC50 Assay (FAC beta-estradiol), purified protein enzyme activity assay with NAD(P)H-Glo luciferase readout; assay type: biochemical; settings: geometric mean, 12 μM FAC beta-estradiol, 500 μM NAD+, read-out: hHSD17B13_IC50 GMean IC50
# HSD17B13 enzyme, sequence (Q7Z5P4 20-300): as above
# Outline: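 Purified human HSD17B13 (30 nM FAC) incubated with compound, beta-estradiol and NAD+ for 2 h at room temperature in the dark. NADH formation was detected by NAD(P)H-Glo luminescence after 1 h. RLUs normalized to uninhibited enzyme (vehicle) as zero effect.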
SMILES,IC50 (wild type human HSD17B13),IC50 (HSD17B13 enzyme)
"O=C(NC[C@]12CC[C@](c3nc(-c4ccc(C(F)(F)F)nc4)no3)(CC1)CC2)c1cc(F)c(O)c(F)c1 [Example 140, 3,5-difluoro-4-hydroxy-N-[(4-{3-[6-(trifluoromethyl)pyridin-3-yl]-1,2,4-oxadiazol-5-yl}bicyclo[2.2.2]octan-1-yl)methyl] benzamide]",220 nM,16 nM
"Cn1cc(-c2ccc3cn([C@H]4CC[C@H](CNC(=O)c5cc(F)c(O)c(F)c5)CC4)nc3c2)cn1 [Example 60, 3,5-difluoro-4-hydroxy-N-({(1r,4r)-4-[6-(1-methyl-1H-pyrazol-4-yl)-2H-indazol-2-yl]cyclohexyl}methyl) benzamide]",94 nM,5.8 nM
"O=C(NC[C@]12CC[C@](c3noc(-c4ccc(OS(=O)(=O)F)cc4)n3)(CC1)CC2)c1cc(F)c(O)c(F)c1 [Example 126, 4-(3-{4-[(3,5-difluoro-4-hydroxybenzamido)methyl]bicyclo[2.2.2]octan-1-yl}-1,2,4-oxadiazol-5-yl) phenyl sulfurofluoridate]",430 nM,16 nM
"O=C(NC[C@]12CC[C@](c3nc(-c4cnc(C(F)(F)F)cn4)no3)(CC1)CC2)c1cc(F)c(O)c(F)c1F [Example 178, 2,3,5-trifluoro-4-hydroxy-N-[(4-{3-[5-(trifluoromethyl)pyrazin-2-yl]-1,2,4-oxadiazol-5-yl}bicyclo[2.2.2]octan-1-yl)methyl]benzamide]",150 nM,7.9 nM
"O=C(NC[C@H]1CC[C@H](n2cc3ccc(-c4cnn(C5CCOC5)c4)cc3n2)CC1)c1cc(F)c(O)c(F)c1 (stereo partly drawn) [Example 38, 3,5-difluoro-4-hydroxy-N-{[(1r,4r)-4-{6-[1-(oxolan-3-yl)-1H-pyrazol-4-yl]-2H-indazol-2-yl}cyclohexyl]methyl} benzamide]",150 nM,4.6 nM
"O=C(NC[C@H]1CC[C@H](n2cc3ccc(-c4cnn5c4OCC5)cc3n2)CC1)c1cc(F)c(O)c(F)c1 [Example 37, N-({(1r,4r)-4-[6-(2,3-dihydropyrazolo[5,1-b][1,3]oxazol-7-yl)-2H-indazol-2-yl]cyclohexyl}methyl)-3,5-difluoro-4-hydroxybenzamide]",150 nM,8.4 nM
"CC(C)(C)C(=O)Nc1ccc(-c2noc([C@H]3CC[C@H](CNC(=O)c4cc(F)c(O)c(F)c4)CC3)n2)nn1 [Example 17, N-{[(1r,4r)-4-{3-[6-(2,2-Dimethylpropanamido)pyridazin-3-yl]-1,2,4-oxadiazol-5-yl}cyclohexyl]methyl}-3,5-difluoro-4-hydroxybenzamide, ammonium salt]",270 nM,12 nM
"O=C(NC[C@]12CC[C@](n3cc4ccccc4n3)(CC1)CC2)c1cc(F)c(O)c(F)c1 [Example 202, 3,5-difluoro-4-hydroxy-N-{[4-(2H-indazol-2-yl)bicyclo [2.2.2]octan-1-yl]methyl}benzamide]",220 nM,49 nM
"O=C(NC[C@]12CC[C@](c3nc(-c4ccc(C(F)(F)F)nn4)no3)(CC1)CC2)c1cc(F)c(O)c(F)c1F [Example 184, 2,3,5-trifluoro-4-hydroxy-N-[(4-{3-[6-(trifluoromethyl)pyridazin-3-yl]-1,2,4-oxadiazol-5-yl}bicyclo[2.2.2]octan-1-yl)methyl]benzamide]",220 nM,5.5 nM
"O=C(NC[C@H]1CC[C@H](n2cc3ccc(Cl)cc3n2)CC1)c1cc(F)c(O)c(F)c1 [Example 135, N-{[(1r,4r)-4-(6-chloro-2H-indazol-2-yl)cyclohexyl]methyl}-3,5-difluoro-4-hydroxybenzamide, ammonium salt]",250 nM,21 nM
"N#Cc1ccc2cn([C@H]3CC[C@H](CNC(=O)c4cc(F)c(O)c(F)c4)CC3)nc2c1 [Example 134, N-{[(1r,4r)-4-(6-cyano-2H-indazol-2-yl)cyclohexyl]methyl}-3,5-difluoro-4-hydroxybenzamide, ammonium salt]",470 nM,32 nM
"COc1cccc(-c2ccc3cn([C@H]4CC[C@H](CNC(=O)c5cc(F)c(O)c(F)c5)CC4)nc3c2)c1 [Example 64, 3,5-difluoro-4-hydroxy-N-({(1r,4r)-4-[6-(3-methoxyphenyl)-2H-indazol-2-yl]cyclohexyl}methyl) benzamide]",350 nM,5.6 nM
"O=C(NC[C@H]1CC[C@H](n2cc3ccc(-c4cscn4)cc3n2)CC1)c1cc(F)c(O)c(F)c1 [Example 69, 3,5-difluoro-4-hydroxy-N-({(1r,4r)-4-[6-(1,3-thiazol-4-yl)-2H-indazol-2-yl]cyclohexyl}methyl) benzamide]",130 nM,8.4 nM
"O=C(NC[C@]12CC[C@](c3nc4ccccc4o3)(CC1)CC2)c1cc(F)c(O)c(F)c1 [Example 141, N-{[4-(1,3-benzoxazol-2-yl)bicyclo[2.2.2]octan-1-yl]methyl}-3,5-difluoro-4-hydroxybenzamide]",190 nM,8.8 nM
"O=C(NC[C@]12CC[C@](c3nc(-c4ccc(C(F)(F)F)nn4)no3)(CC1)CC2)c1ccc(O)c(F)c1F [Example 180, 2,3-difluoro-4-hydroxy-N-[(4-{3-[6-(trifluoromethyl)pyridazin-3-yl]-1,2,4-oxadiazol-5-yl}bicyclo[2.2.2]octan-1-yl)methyl]benzamide]",470 nM,11 nM
"O=C(NC[C@H]1CC[C@H](n2cc3ccc(-c4cncnc4)cc3n2)CC1)c1cc(F)c(O)c(F)c1F [Example 9, 2,3,5-Trifluoro-4-hydroxy-N-({(1r,4r)-4-[6-(pyrimidin-5-yl)-2H-indazol-2-yl]cyclohexyl}methyl)benzamide]",170 nM,13 nM
"O=C(NC[C@H]1CC[C@H](n2cc3cnc(-c4ccncc4)cc3n2)CC1)c1cc(F)c(O)c(F)c1 [Example 188, 3,5-difluoro-4-hydroxy-N-({(1r,4r)-4-[6-(pyridin-4-yl)-2H-pyrazolo[4,3-c]pyridin-2-yl]cyclohexyl}methyl) benzamide]",240 nM,11 nM
"O=C(NC[C@]12CC[C@](c3nc(-c4cnc(C(F)(F)F)cn4)no3)(CC1)CC2)c1cc(F)c(O)cc1F [Example 179, 2,5-difluoro-4-hydroxy-N-[(4-{3-[5-(trifluoromethyl)pyrazin-2-yl]-1,2,4-oxadiazol-5-yl}bicyclo[2.2.2]octan-1-yl)methyl]benzamide]",150 nM,16 nM
"Cn1cc(-c2ccc3cn([C@H]4CC[C@H](CNC(=O)c5cc(F)c(O)c(F)c5)CC4)nc3c2)c(F)n1 [Example 51, 3,5-difluoro-N-({(1r,4r)-4-[6-(3-fluoro-1-methyl-1H-pyrazol-4-yl)-2H-indazol-2-yl]cyclohexyl}methyl)-4-hydroxybenzamide]",120 nM,6.5 nM
"CS(=O)(=O)c1ccc(-c2noc([C@H]3CC[C@H](CNC(=O)c4cc(F)c(O)c(F)c4)CC3)n2)cc1 [Example 128, 3,5-difluoro-4-hydroxy-N-{[(1r,4r)-4-{3-[4-(methanesulfonyl)phenyl]-1,2,4-oxadiazol-5-yl}cyclohexyl]methyl} benzamide]",400 nM,16 nM
"Cn1nc(-c2noc([C@]34CC[C@](CNC(=O)c5cc(F)c(O)c(F)c5)(CC3)CC4)n2)ccc1=O [Example 146, 3,5-difluoro-4-hydroxy-N-({4-[3-(1-methyl-6-oxo-1,6-dihydro-pyridazin-3-yl)-1,2,4-oxadiazol-5-yl]bicyclo[2.2.2]octan-1-yl}methyl) benzamide]",290 nM,5.6 nM
"CN1CCn2ncc(-c3ccc4cn([C@H]5CC[C@H](CNC(=O)c6cc(F)c(O)c(F)c6)CC5)nc4c3)c21 [Example 41, 3,5-difluoro-4-hydroxy-N-({(1r,4r)-4-[6-(1-methyl-2,3-dihydro-1H-imidazo[1,2-b]pyrazol-7-yl)-2H-indazol-2-yl]cyclohexyl}methyl) benzamide]",440 nM,21 nM
"COc1cnc(-c2noc([C@]34CC[C@](CNC(=O)c5cc(F)c(O)c(F)c5)(CC3)CC4)n2)cn1 [Example 152, 3,5-difluoro-4-hydroxy-N-({4-[3-(5-methoxypyrazin-2-yl)-1,2,4-oxadiazol-5-yl]bicyclo[2.2.2]octan-1-yl}methyl)benzamide]",140 nM,10 nM
"O=C(NC[C@H]1CC[C@H](n2cc3ccc(-c4ncc(CO)cn4)cc3n2)CC1)c1cc(F)c(O)c(F)c1 [Example 58, 3,5-difluoro-4-hydroxy-N-{[(1r,4r)-4-{6-[5-(hydroxymethyl)pyrimidin-2-yl]-2H-indazol-2-yl}cyclohexyl]methyl} benzamide]",280 nM,25 nM
"COc1cc2cn([C@H]3CC[C@H](CNC(=O)c4cc(F)c(O)c(F)c4)CC3)nc2cn1 [Example 6, 3,5-Difluoro-4-hydroxy-N-{[(1r,4r)-4-(5-methoxy-2H-pyrazolo[3,4-c]pyridin-2-yl)cyclohexyl]methyl}benzamide]",440 nM,21 nM
"Cc1nn(C)cc1-c1ccc2cn([C@H]3CC[C@H](CNC(=O)c4cc(F)c(O)c(F)c4)CC3)nc2c1 [Example 50, N-({(1r,4r)-4-[6-(1,3-dimethyl-1H-pyrazol-4-yl)-2H-indazol-2-yl]cyclohexyl}methyl)-3,5-difluoro-4-hydroxybenzamide]",250 nM,11 nM
"O=C(NC[C@H]1CC[C@H](c2noc(-c3cc4ccccn4n3)n2)CC1)c1cc(F)c(O)c(F)c1 [Example 176, 3,5-difluoro-4-hydroxy-N-({(1r,4r)-4-[5-(pyrazolo[1,5-a]pyridin-2-yl)-1,2,4-oxadiazol-3-yl]cyclohexyl}methyl) benzamide]",190 nM,11 nM
